# From patent publication US20080139520A1, “Altering cholesterol and fat uptake by novel allosteric inhibitors of pancreatic phospholipase A2” (priority 2006, published 2008)
# “And” between values parts separate entries of the source, which are not always exact repeats. Identical values can stand only once.
# Legend:
# [1] = biological target: T1, human pancreatic IB PLA2 (Homo sapiens, UniProt P04054); assay: Rate-lowering of hydrolysis of DMPC + 0.05 mole fraction cholate vesicles by human pancreatic PLA2; type: biochemical; conditions: 0.03 mole fraction; DMPC + 0.05 mole fraction cholate
# T1 construct: gift of Dr. Suren Tatulian (Orlando, Fla.)
# T1 sequence (P04054 23-148): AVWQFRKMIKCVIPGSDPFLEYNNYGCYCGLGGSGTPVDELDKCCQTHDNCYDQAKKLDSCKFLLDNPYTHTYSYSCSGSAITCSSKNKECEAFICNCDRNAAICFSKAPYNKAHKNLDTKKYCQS
# Excerpt: (§1) Independent support for selective binding of the rate lowering compounds to a regulatory site on PLA2 comes from the rate-lowering effect of such compounds on the hydrolysis of DMPC vesicles containing 0.05 mole fraction cholate.
# (§2) Scores of other compounds in guggul were not active.
# [2] = biological target: T2, pig pancreatic IB PLA2 (Sus scrofa, UniProt P00592); assay: Rate-lowering of hydrolysis of DMPC + 0.05 mole fraction cholate vesicles by pig pancreatic PLA2; type: biochemical
# T2 construct: made in house
# T2 sequence (P00592 23-146): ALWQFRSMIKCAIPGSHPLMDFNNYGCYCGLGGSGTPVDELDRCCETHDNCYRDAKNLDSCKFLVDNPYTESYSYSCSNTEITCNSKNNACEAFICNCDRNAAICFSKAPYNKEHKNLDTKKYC
# Excerpt: as §1, §2
# [3] = biological target: T3, WT (wild type) pig PLA2 (Sus scrofa, UniProt P00592); assay: PLA2 catalyzed hydrolysis of sonicated DMPC vesicles with added bile salt (pH-stat); type: biochemical; conditions: for effect of bile salt on the rate of hydrolysis (monophasic/biphasic): DMPC vesicles, pancreatic PLA2
# T3 construct: made in house
# T3 sequence (P00592 23-146): as above
# Method: Aqueous dispersion of phospholipid was sonicated in a bath type sonicator. Virtually transparent suspension was annealed for at least 4 hours at room temperature before use. Reaction progress for the PLA2 catalyzed hydrolysis of sonicated DMPC (1 mM) vesicles was measured by pH-stat titration (Radiometer) with 1 mM 2-aminopropanediol in 4 ml reaction buffer containing 5 mM CaCl2 for DMPC (or 0.5 mM for DMPM), 1 mM NaCl, […] atmosphere. Reaction was initiated by adding 0.1 μg enzyme in 1-10 μl solution. The pH stat method was also used for monitoring the rate of hydrolysis of DMPM (0.4 mM) vesicles in the presence of polymyxin [27-29], or of the mixed-micelles of POPC with bile salts in 1:2 ratio [13, 30].
# Delay before the onset of the stationary phase of the PLA2 catalyzed reaction progress for the hydrolysis of zwitterionic phospholipids has been extensively characterized. […] The apparent rates in FIG. 3 were obtained from the initial slopes of such reaction progress during which <5% of the total substrate is hydrolyzed.
# The CMC of the bile salts used in this study range between 0.8 to 5 mM.
# [4] = biological target: T4, PLA2 (3W)(WT) (Sus scrofa, UniProt P00592); assay: Bile salt binding by Trp emission, (3W)(WT) PLA2; design: species or system pig; conditions: read-out: KEB
# T4 construct: made in house
# T4 sequence (P00592 23-146): as above
# Method: (§3) Fluorescence emission spectrum or time course of the intensity change from tryptophan or the resonance energy transfer probe TMA-DPH were measured in the ratio mode on SLM-Aminco AB2 in a 1 cm cuvette [31, 32] in 1.6 ml stirred buffer containing 1 or 2 μM PLA2 in 10 mM Tris, 5 mM CaCl2 and 20 mM NaCl at pH 8.0 and 24° C. The slit-widths were 4 nm with excitation at 280.
# (§4) As shown in [45], the binding of decylsulfate to the R site is accompanied by a modest increase in the emission intensity from Trp-3. […] As summarized in Table 2, the value of KEB depends on the position of Trp, although Hill coefficient remains 1. […] Note that KEB for the EB complex of ΔPLA2 is about 7-fold larger than that for PLA2.
# [5] = biological target: PLA2 R6M (Sus scrofa, UniProt P00592, R28M); assay: Bile salt binding by Trp emission, R6M PLA2; design: species or system pig; conditions: read-out: KEB
# PLA2 R6M, sequence (P00592 23-146 R28M): as the sequence (P00592 23-146) above, with R6M counted along it
# Method: as §3, §4
# [6] = biological target: PLA2 K10M (Sus scrofa, UniProt P00592, K32M); assay: Bile salt binding by Trp emission, K10M PLA2; design: species or system pig; conditions: read-out: KEB
# PLA2 K10M, sequence (P00592 whole entry K32M): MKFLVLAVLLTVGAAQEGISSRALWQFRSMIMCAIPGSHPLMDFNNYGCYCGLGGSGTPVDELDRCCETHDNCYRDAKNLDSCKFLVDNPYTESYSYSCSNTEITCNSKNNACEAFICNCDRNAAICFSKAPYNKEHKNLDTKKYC
# Method: as §3, §4
# [7] = biological target: PLA2 R6M/K10M (Sus scrofa, UniProt P00592, K32M/R28M); assay: Bile salt binding by Trp emission, R6M/K10M PLA2; design: species or system pig; conditions: read-out: KEB
# PLA2 R6M/K10M, sequence (P00592 23-146 R28M/K32M): as the sequence (P00592 23-146) above, with R6M, K10M counted along it
# Method: as §3, §4
# [8] = biological target: T5, PLA2 L2W/W3F (Sus scrofa, UniProt P00592, L24W/W25F); assay: Bile salt binding by Trp emission, L2W/W3F PLA2; design: species or system pig; conditions: read-out: KEB
# T5 construct: made in house
# T5 sequence (P00592 23-146 L24W/W25F): as the sequence (P00592 23-146) above, with L2W, W3F counted along it
# Method: as §3, §4
# [9] = biological target: T6, PLA2 R6W/W3F (Sus scrofa, UniProt P00592, R28W/W25F); assay: Bile salt binding by Trp emission, R6W/W3F PLA2; design: species or system pig; conditions: read-out: KEB
# T6 construct: made in house
# T6 sequence (P00592 23-146 W25F/R28W): as the sequence (P00592 23-146) above, with W3F, R6W counted along it
# Method: as §3, §4
# [10] = biological target: T7, PLA2 K10W/W3F (Sus scrofa, UniProt P00592, K32W/W25F); assay: Bile salt binding by Trp emission, K10W/W3F PLA2; design: species or system pig; conditions: read-out: KEB
# T7 construct: made in house
# T7 sequence (P00592 23-146 W25F/K32W): as the sequence (P00592 23-146) above, with W3F, K10W counted along it
# Method: as §3, §4
# [11] = biological target: T8, PLA2 L19W/W3F (Sus scrofa, UniProt P00592, L41W/W25F); assay: Bile salt binding by Trp emission, L19W/W3F PLA2; design: species or system pig; conditions: read-out: KEB
# T8 construct: made in house
# T8 sequence (P00592 23-146 W25F/L41W): as the sequence (P00592 23-146) above, with W3F, L19W counted along it
# Method: as §3, §4
# [12] = biological target: T9, PLA2 M20W/W3F (Sus scrofa, UniProt P00592, M42W/W25F); assay: Bile salt binding by Trp emission, M20W/W3F PLA2; design: species or system pig; conditions: read-out: KEB
# T9 construct: made in house
# T9 sequence (P00592 23-146 W25F/M42W): as the sequence (P00592 23-146) above, with W3F, M20W counted along it
# Method: as §3, §4
# [13] = biological target: T10, PLA2 K53W/W3F (Sus scrofa, UniProt P00592, R75W/W25F); assay: Bile salt binding by Trp emission, K53W/W3F PLA2; design: species or system pig; conditions: read-out: KEB
# T10 construct: made in house
# T10 sequence (P00592 23-146 W25F/R75W): as the sequence (P00592 23-146) above, with W3F, R53W counted along it
# Method: as §3, §4
# [14] = biological target: T11, PLA2 K56W/W3F (Sus scrofa, UniProt P00592, K78W/W25F); assay: Bile salt binding by Trp emission, K56W/W3F PLA2; design: species or system pig; conditions: read-out: KEB
# T11 construct: made in house
# T11 sequence (P00592 23-146 W25F/K78W): as the sequence (P00592 23-146) above, with W3F, K56W counted along it
# Method: as §3, §4
# [15] = biological target: T12, PLA2 K87W/W3F (Sus scrofa, UniProt P00592, K109W/W25F); assay: Bile salt binding by Trp emission, K87W/W3F PLA2; design: species or system pig; conditions: read-out: KEB
# T12 construct: made in house
# T12 sequence (P00592 23-146 W25F/K109W): as the sequence (P00592 23-146) above, with W3F, K87W counted along it
# Method: as §3, §4
# [16] = biological target: T13, PLA2 (Sus scrofa, UniProt P00592); assay: Isothermal calorimetric titration of PLA2 with bile salt; type: binding, pig; conditions: ITC, 8.5 μM PLA2; for Kd: read-out: KEB
# T13 construct: made in house
# T13 sequence (P00592 23-146): as the sequence (P00592 23-146) above
# Method: ITC titration of PLA2 with <1 mM (below the CMC) bile salt stock solution was carried out on the Microcal calorimeter (model VP-itc) with cell volume of 1.42 ml with stirring at 300 rpm. Successive injections were made every 5 min. Standard software was used for the peak integration. The heat change with the internal calibration associated with the dilution of the titrant in the […] was subtracted from the heat change obtained by the injection of the bile salt in the presence of 8.5 μM PLA2. The net heat change per injection in the presence of PLA2 was integrated to obtain the total heat change as a function of the total added amphiphile concentration.
# [17] = biological target: T13, PLA2; assay: Quenching of RET signal from TMA-DPH bound to PLA2 by bile salts; type: binding, pig; conditions: 1 μM PLA2 and TMA-DPH, pH 8.0
# Method: as §3
# [18] = biological target: T13, PLA2; assay: PLA2 catalyzed hydrolysis of mixed micelles of POPC with bile salts; type: biochemical, pig; conditions: 1 mM POPC, 0.7 mole fraction bile salt
# Method: (§5) Aqueous dispersion of phospholipid was sonicated in a bath type sonicator. Virtually transparent suspension was annealed for at least 4 hours at room temperature before use. Reaction progress for the PLA2 catalyzed hydrolysis of sonicated DMPC (1 mM) vesicles was measured by pH-stat titration (Radiometer) with 1 mM 2-aminopropanediol in 4 ml reaction buffer containing 5 mM CaCl2 for DMPC (or 0.5 mM for DMPM), 1 mM NaCl, and 0.1 mM EDTA at pH 8.0 and 24° C. in the nitrogen purged closed atmosphere. Reaction was initiated by adding 0.1 μg enzyme in 1-10 μl solution. The pH stat method was also used for monitoring the rate of hydrolysis of DMPM (0.4 mM) vesicles in the presence of polymyxin [27-29], or of the mixed-micelles of POPC with bile salts in 1:2 ratio [13, 30].
# [19] = biological target: T1, human pancreatic IB PLA2; assay: Hydrolysis of DMPC vesicles by human IB PLA2 with added bile salt; type: biochemical; conditions: 1 mM DMPC
# Method: as §5
smiles,measurement,setting,value
CC(=CCCC(C)C1CCC2(C)C3=CCC4C(C)(C)C(O)CCC4(C)C3CCC12C)C(=O)O (stereo not drawn) [Masticadienolic acid],"Relative Rate-lowering (%) Activity, hPLA2",[1],66%
same,"Relative Rate-lowering (%) Activity, pPLA2","[2]; 0.03 mole fraction, DMPC + 0.05 mole fraction cholate",>95%
same,relative effectiveness in lowering the rate with pig pancreatic PLA2,"[2]; DMPC vesicles containing 0.05 mole fraction cholate, FIG. 6",effective by another factor of ten
"C[C@H](CCC(=O)NCCS(=O)(=O)O)[C@H]1CC[C@H]2[C@@H]3CC[C@@H]4C[C@H](O)CC[C@]4(C)[C@H]3C[C@H](O)[C@]12C [TDOC, taurodeoxycholate]",effect of bile salt on the rate of hydrolysis (monophasic/biphasic),[3],biphasic effect
same,Kd,[4],30 µM
same,Kd,[5],> 100 µM
same,Kd,[6],> 100 µM
same,Kd,[7],10 µM
same,Kd,[8],20 µM
same,Kd,[9],4 µM
same,Kd,[10],10 µM
same,Kd,[11],44 µM
same,Kd,[12],2 µM
same,Kd,[13],33 µM
same,Kd,[14],35 µM
same,Kd,[15],2 µM
"C[C@H](CCC(=O)NCCS(=O)(=O)O)[C@H]1CC[C@H]2[C@@H]3[C@@H](O)C[C@@H]4C[C@H](O)CC[C@]4(C)[C@H]3CC[C@]12C [TUDOC, tauroursodeoxycholate]",effect of bile salt on the rate of hydrolysis (monophasic/biphasic),[3],biphasic effect
same,Kd,[16],< 2 µM
same,efficacy to quench RET signal from TMA-DPH bound to PLA2,[17],most effective
"C[C@H](CCC(=O)O)[C@H]1CC[C@H]2[C@@H]3[C@@H](O)C[C@@H]4C[C@H](O)CC[C@]4(C)[C@H]3CC[C@]12C [UDOC, ursodeoxycholate]",Kd,[16],2 to 38 µM and 37 µM
"C[C@H](CCC(=O)O)[C@H]1CC[C@H]2[C@@H]3[C@H](O)C[C@@H]4C[C@H](O)CC[C@]4(C)[C@H]3C[C@H](O)[C@]12C [cholate, reference compound]",peak rate of hydrolysis of DMPC vesicles,"[3]; 1 mM DMPC, 24° C., cholate above 0.04 mM",140 s⁻¹
same,effect of bile salt on the rate of hydrolysis (monophasic/biphasic),[3],only a rate increase
same,initial rate of hydrolysis of POPC in mixed micelles,[18],150 s⁻¹
same,effect on rate of hydrolysis of DMPC vesicles by human pancreatic IB PLA2,[19],increases
same,heat change on titration of PLA2,[16],No heat change
same,efficacy to quench RET signal from TMA-DPH bound to PLA2,[17],least effective
C[C@H](CCC(=O)NCC(=O)O)[C@H]1CC[C@H]2[C@@H]3[C@H](O)C[C@@H]4C[C@H](O)CC[C@]4(C)[C@H]3C[C@H](O)[C@]12C [glycocholate],effect of bile salt on the rate of hydrolysis (monophasic/biphasic),[3],biphasic effect
